Reference: patent US20130018062A1, “Pain therapy with metabolism blocked antifolates” (priority 2011, published 2013)

Tests used:
[1] = system: patients with Rheumatoid Arthritis; test: Pain assessment by VAS scale in patients treated with M-Trex (Example-1); type: in vivo, human
Source text: Of special importance was the novel observation of the ability of M-Trex to substantially reduce Pain in human subjects who were suffering from inflammation caused by autoimmune response. [O. Castaneda and M. G. Nair. Controlled trial of methotrexate versus CH-1504 in the treatment of Rheumatoid Arthritis. The J. Rheumatology. 33, 862-64, 2006.] […] Another unique observation with M-Trex was its ability to shrink human tumor xenografts in immuno-compromised mice. The ability of metabolism blocked antifolate M-Trex to shrink rapidly proliferating human tissues is representative and results in Pain reduction secondary to such proliferation. [EXAMPLE-1]** ** Pain assessment was made using the VAS scale every four weeks. Patients were treated with a daily oral dose of 7.5 mg/day of M-Trex during the duration of measurements. […] Pain as assessed by VAS was reduced from a scale of 7.2 to 1.8.
There are three general accepted methods for the evaluation of Pain in patients suffering from a number of diseases. They are Visual Analog Scale (VAS); Numeric rating Scale (NRS) and Verbal Categorical Rating Scale […]. Of these three assessment methods VAS is considered to be most reliable in a majority of cases to evaluate and quantify the magnitude of the perception of Pain. […]

A549/ATCC (NSCLC) = test: Growth inhibition of human tumor cells in culture (NCI); type: cell-based
Source text: (§1) The preceding data collected at the National Cancer Institute summarize the ability of M-Trex to inhibit 50% of the growth of selected tumor cells in culture. The values are expressed as Log10 GI50 values all of which are lower than 10^−8M. In the same table a comparison is made of the respective values of TGI (Total Growth Inhibition) for M-Trex and MTX. […] In addition, the Log10 GI50 values of M-Trex was lower than −8.00 for the following cell lines: NSCLC, A549/ATCC and NCI H23; Colon Cancer, HCT 116, HCT 29 and SW 620; CNS Cancer, SF 268; Melanoma M 14 and UACC 62; Ovarian Cancer, OVCAR-8; Renal Cancer, ACHN, CAKI-1, SN 12C, and UO 31; Prostate Cancer, PC 3 and Breast cancer, MDA-MB-435 and MDA-N. The MG_MID value of MTX for all 49 human tumor cell lines evaluated at NCI-DTP program was −7.05. […] The tumors and sarcomas are solid while leukemia and lymphoma are liquid tumors.

UACC 62 (Melanoma) = test: as above; type: cell-based
Source text: as §1

CCRF-CEM (Leukemia) = test: as above; type: cell-based
Source text: as §1

SN 12C (Renal Cancer) = test: as above; type: cell-based
Source text: as §1

CAKI-1 (Renal Cancer) = test: as above; type: cell-based
Source text: as §1

ACHN (Renal Cancer) = test: as above; type: cell-based
Source text: as §1

HCT 116 (Colon Cancer) = test: as above; type: cell-based
Source text: as §1

[2] = system: MCF7-ADR-RES (Breast Cancer); test: as above; type: cell-based
Source text: as §1

RPMI 8226 (Leukemia) = test: as above; type: cell-based; details: logarithmic value
Source text: as §1

SF 268 (CNS Cancer) = test: as above; type: cell-based
Source text: as §1

SF 539 (CNS Cancer) = test: as above; type: cell-based; details: logarithmic value
Source text: as §1

MDA-N (Breast cancer) = test: as above; type: cell-based
Source text: as §1

MCF-7 (Breast Cancer) = test: as above; type: cell-based; details: logarithmic value
Source text: as §1

MOLT-4 (Leukemia) = test: as above; type: cell-based; details: logarithmic value
Source text: as §1

UO 31 (Renal Cancer) = test: as above; type: cell-based
Source text: as §1

PC 3 (Prostate Cancer) = test: as above; type: cell-based
Source text: as §1

HCT 29 (Colon Cancer) = test: as above; type: cell-based
Source text: as §1

M 14 (Melanoma) = test: as above; type: cell-based
Source text: as §1

K562 (Leukemia) = test: as above; type: cell-based; details: logarithmic value
Source text: as §1

SR (Leukemia) = test: as above; type: cell-based; details: logarithmic value
Source text: as §1

Allergic Rabbits = details: allergen induced; cited from earlier work

SMILES: C=C(CC(NC(=O)c1ccc(CCc2ccc3nc(N)nc(N)c3c2)cc1)C(=O)O)C(=O)O (stereo not drawn) [M-Trex, 4′-methylene-5,8-10-trideazaaminopterin]
- Pain as assessed by VAS ([1]; starting value from which pain was reduced, Rheumatoid Arthritis patients): 7.2
- Pain as assessed by VAS ([1]; value reached on daily oral dose of 7.5 mg/day of M-Trex, assessed every four weeks): 1.8
- Log10 GI50 (A549/ATCC (NSCLC)): lower than −8.00
- Log10 GI50 (UACC 62 (Melanoma)): lower than −8.00
- TGI (Total Growth Inhibition) (CCRF-CEM (Leukemia); logarithmic value): <−8.00
- Log10 GI50 (CCRF-CEM (Leukemia); value is Log10 of GI50): <−8.00 M
- Log10 GI50 (SN 12C (Renal Cancer)): lower than −8.00
- Log10 GI50 (CAKI-1 (Renal Cancer)): lower than −8.00
- Log10 GI50 (ACHN (Renal Cancer)): lower than −8.00
- Log10 GI50 (HCT 116 (Colon Cancer)): lower than −8.00
- TGI (Total Growth Inhibition) ([2]; logarithmic value): −7.26
- Log10 GI50 ([2]; value is Log10 of GI50): <−8.00 M
- TGI (Total Growth Inhibition) (RPMI 8226 (Leukemia)): −7.44
- Log10 GI50 (SF 268 (CNS Cancer)): lower than −8.00
- TGI (Total Growth Inhibition) (SF 539 (CNS Cancer)): −6.3
- Log10 GI50 (MDA-N (Breast cancer)): lower than −8.00
- TGI (Total Growth Inhibition) (MCF-7 (Breast Cancer)): −6.32
- TGI (Total Growth Inhibition) (MOLT-4 (Leukemia)): −7.40
- Log10 GI50 (UO 31 (Renal Cancer)): lower than −8.00
- Log10 GI50 (PC 3 (Prostate Cancer)): lower than −8.00
- Log10 GI50 (HCT 29 (Colon Cancer)): lower than −8.00
- Log10 GI50 (M 14 (Melanoma)): lower than −8.00
- TGI (Total Growth Inhibition) (K562 (Leukemia)): <−8.00
- TGI (Total Growth Inhibition) (SR (Leukemia)): <−8.00
- Asthmatic Response Early (Allergic Rabbits): 52
- Asthmatic Response Late (Allergic Rabbits): 58
- BHR (Bronchial Hyper-Responsiveness) (Allergic Rabbits): 47
